Reference: patent publication US7307044B2, “3-biphenyl-substituted-3-substituted-4-ketolactam and ketolactone and their utilization as pesticide” (Bayer CropScience AG, priority 2001, dated 2007)

Key:
Format in all cases: in vivo
[1] = system: caterpillars of the armyworm (Spodoptera frugiperda); assay: Spodoptera frugiperda test; conditions: 500 ppm, cabbage leaves dipped
Method: (§1) Spodoptera frugiperda Test Solvent: 7 parts by weight of dimethylformamide Emulsifier: 2 parts by weight of alkylaryl polyglycol ether To produce a suitable preparation of active compound, 1 part by weight of active compound is mixed with the stated amounts of solvent and emulsifier, and the concentrate is diluted with emulsifier-containing water to the desired concentration. Cabbage leaves (Brassica oleracea) are treated by being dipped into the preparation of active compound of the desired concentration and are populated with caterpillars of the armyworm (Spodoptera frugiperda) while the leaves are still moist. After the desired period of time, the kill in % is determined. 100% means that all caterpillars have been killed; 0% means that none of the caterpillars have been killed.

[2] = system: Setaria; assay: Post-emergence test (greenhouse); conditions: after three weeks
Method: (§2) Solvent: 5 parts by weight of acetone
(§3) Emulsifier: 1 part by weight of alkylaryl polyglycol ether
(§4) To produce a suitable preparation of active compound, 1 part by weight of active compound is mixed with the stated amount of solvent, the stated amount of emulsifier is added and the concentrate is diluted with water to the desired concentration.
(§5) Test plants of a height of 5-15 cm are sprayed with the preparation of active compound such that the particular amounts of active compound desired are applied per unit area. The concentration of the spray liquor is chosen such that the particular amounts of active compound desired are applied in 1000 l of water/ha.
(§6) After three weeks, the degree of damage to the plants is rated in % damage in comparison to the development of the untreated control.
(§7) The figures denote: • 0%=no effect (like untreated control) • 100%=total destruction

[3] = system: Echinochloa; assay: Post-emergence test (greenhouse); conditions: after three weeks
Method: as §2, §3, §4, §5, §6, §7

[4] = system: Alopecurus; assay: Post-emergence test (greenhouse); conditions: after three weeks
Method: as §2, §3, §4, §5, §6, §7

[5] = system: Digitaria; assay: Post-emergence test (greenhouse); conditions: 125 g ai/ha, after three weeks
Method: as §2, §3, §4, §5, §6, §7

[6] = system: Avena fatua; assay: Post-emergence test (greenhouse); conditions: after three weeks
Method: as §2, §3, §4, §5, §6, §7

[7] = system: Sugar beet; assay: Post-emergence test (greenhouse); conditions: 125 g ai/ha, after three weeks
Method: as §2, §3, §4, §5, §6, §7

[8] = system: greenhouse red spider mite (Tetranychus urticae); assay: Tetranychus test (OP-resistent/dip treatment); conditions: 100 ppm, bean plants dipped
Method: Tetranychus Test (OP-Resistent/Dip Treatment)
Solvent: 7 parts by weight of dimethylformamide
Emulsifier: 2 parts by weight of alkylaryl polyglycol ether
To produce a suitable preparation of active compound, 1 part by weight of active compound is mixed with the stated amounts of solvent and emulsifier, and the concentrate is diluted with emulsifier-containing water to the desired concentration.
Bean plants (Phaseolus vulgaris) which are heavily infested by all stages of the greenhouse red spider mite (Tetranychus urticae) are dipped into a preparation of active compound of the desired concentration.
After the desired period of time, the effect in % is determined. 100% means that all spider mites have been killed; 0% means that none of the spider mites have been killed.

[9] = system: green peach aphid (Myzus persicae); assay: Myzus test; conditions: 500 ppm, cabbage leaves dipped
Method: as §1, with “Myzus” for “Spodoptera frugiperda”, “oleracea) which are heavily infested by the green peach aphid (Myzus persicae)” for “oleracea)”, “concentration.” for “concentration and are populated with caterpillars of the armyworm (Spodoptera frugiperda) while the leaves are still moist.”, “aphids” for “caterpillars”

[10] = system: larvae of the mustard beetle (Phaedon cochleariae); assay: Phaedon larvae test; conditions: 500 ppm, cabbage leaves dipped
Method: as §1, with “Phaedon Larvae Test” for “Spodoptera frugiperda Test”, “with larvae” for “with caterpillars”, “the mustard beetle (Phaedon cochleariae)” for “the armyworm (Spodoptera frugiperda)”, “all beetle larvae” for “all caterpillars”, “the beetle larvae” for “the caterpillars”

[11] = system: Plasmopara viticola; assay: Plasmopara test (grapevine)/protective; conditions: protective, evaluation 6 days after inoculation
Method: Plasmopara Test (Grapevine)/Protective Solvents: 24.5 parts by weight of acetone • 24.5 parts by weight of dimethylacetamide Emulsifier: 1.0 part by weight of alkylaryl polyglycol ether To produce a suitable preparation of active compound, 1 part by weight of active compound is mixed with the stated amounts of solvent and emulsifier, and the concentrate is diluted with water to the desired concentration. To test for protective activity, young plants are sprayed with the preparation of active compound at the stated application rate. After the spray coating has dried on, the plants are inoculated with an aqueous spore suspension of Plasmopara viticola and then remain in an incubation cabin at 20° C. and 100% relative atmospheric humidity for 1 day. The plants are then placed in a greenhouse at about 21° C. and about 90% atmospheric humidity for 4 days. The plants are then moistened and placed in an incubation cabin for 1 day.

[12] = system: apple scab pathogen Venturia inaequalis; assay: Venturia test (apple)/protective; conditions: protective, evaluation 10 days after inoculation
Method: Venturia Test (Apple)/Protective Solvents: 24.5 parts by weight of acetone • 24.5 parts by weight of dimethylacetamide Emulsifier: 1.0 part by weight of alkylaryl polyglycol ether To produce a suitable preparation of active compound, 1 part by weight of active compound is mixed with the stated amounts of solvent and emulsifier, and the concentrate is diluted with water to the desired concentration. To test for protective activity, young plants are sprayed with the preparation of active compound at the stated application rate. After the spray coating has dried on, the plants are inoculated with an aqueous conidia suspension of the apple scab pathogen Venturia inaequalis and then remain in an incubation cabin at about 20° C. and 100% relative atmospheric humidity for 1 day. The plants are then placed in a greenhouse at about 21° C. and a relative atmospheric humidity of about 90%.

[13] = system: Sinapis; assay: Post-emergence test (greenhouse); conditions: 250 g ai/ha, after three weeks
Method: as §2, §3, §4, §5, §6, §7

[14] = system: Setaria; assay: Pre-emergence test (greenhouse); conditions: 250 g ai/ha, after three weeks
Method: (§8) Pre-Emergence Test Solvent: 5 parts by weight of acetone Emulsifier: 1 part by weight of alkylaryl polyglycol ether To produce a suitable preparation of active compound, 1 part by weight of active compound is mixed with the stated amount of solvent, the stated amount of emulsifier is added and the concentrate is diluted with water to the desired concentration. Seeds of the test plants are sewn in normal soil. After about 24 hours, the soil is sprayed with the preparation of active compound such that the particular amounts of active compound desired are applied per unit area. The concentration of the spray liquor is chosen such that the particular amounts of active compound desired are applied in 1000 l of water/ha. After three weeks, the degree of damage to the plants is rated in % damage in comparison to the development of the untreated control. The figures denote: • 0%=no effect (like untreated control) • 100%=total destruction

[15] = system: Echinochloa; assay: Pre-emergence test (greenhouse); conditions: 250 g ai/ha, after three weeks
Method: as §8

[16] = system: Alopecurus; assay: Pre-emergence test (greenhouse); conditions: 250 g ai/ha, after three weeks
Method: as §8

[17] = system: Avena fatua; assay: Pre-emergence test (greenhouse); conditions: 250 g ai/ha, after three weeks
Method: as §8

[18] = system: Amaranthus; assay: Pre-emergence test (greenhouse); conditions: 250 g ai/ha, after three weeks
Method: as §8

[19] = system: Amaranthus; assay: Post-emergence test (greenhouse); conditions: 250 g ai/ha, after three weeks
Method: as §2, §3, §4, §5, §6, §7

With `Cc1ccc(-c2ccc(Cl)cc2)cc1C1(Cl)C(=O)NC(C)(C)C1=O` (stereo not shown) [Ex. I-1-1] the “Kill rate in % after 7 d” value [1] was 100%, the “degree of damage to the plants in % damage” value (from here on “degree … in % damage”) ([2]; 125 g ai/ha) was 100% and the “degree … in % damage” value ([3]; 125 g ai/ha) was 100%. For the same compound, the “degree … in % damage” value ([4]; 125 g ai/ha) was 95%, the “degree … in % damage” value [5] was 90% and the “degree … in % damage” value ([6]; 125 g ai/ha) was 100%. For the same compound, the “degree … in % damage” value [7] was 0%, the “Kill rate in % after 7 d” value [8] was 100% and the “Kill rate in % after 6 d” value [9] was 95%. For the same compound, the “Kill rate in % after 7 d” value [10] was 100%, the Emax at 100 g/ha ([11]; Plasmopara viticola, 144 h, read-out: % efficacy) was 100% and the Emax at 100 g/ha ([12]; Venturia inaequalis, 240 h, read-out: % efficacy) was 97%.
`CC1(C)NC(=O)C(Cl)(c2cc(-c3ccc(Cl)cc3)ccc2Cl)C1=O` (stereo not shown) [Ex. I-1-2] was tested, and the “Kill rate in % after 7 d” value [1] was 100%, the “degree … in % damage” value ([2]; 125 g ai/ha) was 90% and the “degree … in % damage” value ([3]; 125 g ai/ha) was 100%. For the same compound, the “degree … in % damage” value ([4]; 125 g ai/ha) was 90%, the “degree … in % damage” value [5] was 100% and the “degree … in % damage” value ([6]; 125 g ai/ha) was 95%. The “degree … in % damage” value [7] was 0%, the “Kill rate in % after 7 d” value [8] was 100% and the “Kill rate in % after 7 d” value [10] was 100%. For the same compound, the “% efficacy” value ([11]; 100 g/ha) was 100% and the “% efficacy” value ([12]; 100 g/ha) was 96%.
For `COC1CCC2(CC1)NC(=O)C(Cl)(c1c(C)cc(-c3cccc(Cl)c3)cc1C)C2=O` (stereo not shown) [Ex. I-1-4], the “degree … in % damage” value [13] was 70%, the “degree … in % damage” value ([2]; 250 g ai/ha) was 100% and the “degree … in % damage” value ([3]; 250 g ai/ha) was 100%. For the same compound, the “degree … in % damage” value ([4]; 250 g ai/ha) was 100%, the “degree … in % damage” value ([6]; 250 g ai/ha) was 100% and the “degree … in % damage” value [14] was 100%. The “degree … in % damage” value [15] was 100%, the “degree … in % damage” value [16] was 95% and the “degree … in % damage” value [17] was 90%. For the same compound, the “degree … in % damage” value [18] was 90%.
With `Cc1cc(-c2ccc(Cl)cc2)cc(Cl)c1C1(Cl)C(=O)NC2(CCCOC2)C1=O` (stereo not shown) [Ex. I-1-8] the “degree … in % damage” value [13] was 80%, the “degree … in % damage” value ([2]; 250 g ai/ha) was 100% and the “degree … in % damage” value ([3]; 250 g ai/ha) was 100%. The “degree … in % damage” value ([4]; 250 g ai/ha) was 95%, the “degree … in % damage” value ([6]; 250 g ai/ha) was 95% and the “degree … in % damage” value [19] was 70%. The “Kill rate in % after 7 d” value [8] was 98%.
`CCOC1CCC2(CC1)NC(=O)C(Cl)(c1c(C)cc(-c3ccc(Cl)cc3)cc1CC)C2=O` (stereo not shown) [Ex. I-1-10] was tested, and the “degree … in % damage” value [13] was 80%, the “degree … in % damage” value ([2]; 250 g ai/ha) was 100% and the “degree … in % damage” value ([3]; 250 g ai/ha) was 100%. For the same compound, the “degree … in % damage” value ([4]; 250 g ai/ha) was 100%, the “degree … in % damage” value ([6]; 250 g ai/ha) was 100% and the “degree … in % damage” value [19] was 80%.
